Patent US5556744A, “Methods and compositions for diagnosing and treating certain HIV infected patients” (The Trustees of the University of Pennsylvania, priority 1994, dated 1996)

What was measured:
[1] = test system: maternal sera (antibodies); assay: ELISA peptide-binding of maternal sera (Example 6); parameters: species or system human; conditions: for Number of Non-Transmitters which bound to peptide / Percent of Non-Transmitters which bound to peptide: N = 12; for Number of Transmitters which bound to peptide / Percent of Transmitters which bound to peptide: N = 4
Method in brief: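 HIV-1 envelope peptides averaging 16 amino acids, covering external and transmembrane glycoprotein, were probed by ELISA. Third-trimester maternal sera, classed as transmitter or non-transmitter by child diagnosis, were each run on at least 40 peptides. Values give percent of sera binding a peptide.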

[2] = test system: maternal HIV+ sera (antibodies); assay: RIA / ELISA binding of maternal HIV+ sera to gp120 and gp41 peptides (Example 3); parameters: species or system human
Method in brief: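 Maternal sera, diluted 1:50 and 1:500, were bound overnight at 4°C to peptides immobilized at 10 μg/ml (pH 9.6 carbonate) and blocked with 1% BSA. Read-out was ¹²⁵I-labelled anti-human IgG counts or HRP-TMB OD450. Signal with peptide minus without was expressed relative to seronegative serum.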

[3] = Serum No. 1, Non-Transmission Group
[4] = Serum No. 2, Non-Transmission Group
[5] = Serum No. 3, Non-Transmission Group
[6] = Serum No. 4, Transmission Group
[7] = Serum No. 5, Transmission Group
[8] = Serum No. 6, Non-Transmission Group
[9] = Serum No. 7, Non-Transmission Group
[10] = Serum No. 8, Non-Transmission Group
[11] = Serum No. 9, Non-Transmission Group
[12] = Serum No. 10, Transmission Group
[13] = Serum No. 11, Non-Transmission Group
[14] = Serum No. 12, Non-Transmission Group
[15] = Serum No. 13, Transmission Group
[16] = Serum No. 14, Transmission Group
[17] = Serum No. 15, Transmission Group
[18] = Serum No. 16, Non-Transmission Group
[19] = Serum No. 17, Non-Transmission Group
[20] = Serum No. 18, Non-Transmission Group
[21] = Serum No. 19, Transmission Group
[22] = Serum No. 20, Non-Transmission Group

Sequence | Number of Non-Transmitters which bound to peptide [1] | Percent of Non-Transmitters which bound to peptide [1] | Number of Transmitters which bound to peptide [1] | Percent of Transmitters which bound to peptide [1] | Binding of maternal HIV+ serum to peptide (sera/NHS ratio) [2, 3] | Binding of maternal HIV+ serum to peptide (sera/NHS ratio) [2, 4] | Binding of maternal HIV+ serum to peptide (sera/NHS ratio) [2, 5] | Binding of maternal HIV+ serum to peptide (sera/NHS ratio) [2, 6] | Binding of maternal HIV+ serum to peptide (sera/NHS ratio) [2, 7] | Binding of maternal HIV+ serum to peptide (sera/NHS ratio) [2, 8] | Binding of maternal HIV+ serum to peptide (sera/NHS ratio) [2, 9] | Binding of maternal HIV+ serum to peptide (sera/NHS ratio) [2, 10] | Binding of maternal HIV+ serum to peptide (sera/NHS ratio) [2, 11] | Binding of maternal HIV+ serum to peptide (sera/NHS ratio) [2, 12] | Binding of maternal HIV+ serum to peptide (sera/NHS ratio) [2, 13] | Binding of maternal HIV+ serum to peptide (sera/NHS ratio) [2, 14] | Binding of maternal HIV+ serum to peptide (sera/NHS ratio) [2, 15] | Binding of maternal HIV+ serum to peptide (sera/NHS ratio) [2, 16] | Binding of maternal HIV+ serum to peptide (sera/NHS ratio) [2, 17] | Binding of maternal HIV+ serum to peptide (sera/NHS ratio) [2, 18] | other results
RKSIGIQRGPGR [Peptide 1029-33] | 0 | 0% | 0 | 0% | + (which value is between 2 to 3) | ++ (which value is greater than 3) | + (which value is between 2 to 3) | - (specific OD450 or cpm of sera sample binding to peptide divided by the specific OD450 or cpm of NHS sample binding to peptide, which value is less than 2) | + (which value is between 2 to 3) | - (specific OD450 or cpm of sera sample binding to peptide divided by the specific OD450 or cpm of NHS sample binding to peptide, which value is less than 2) | - (specific OD450 or cpm of sera sample binding to peptide divided by the specific OD450 or cpm of NHS sample binding to peptide, which value is less than 2) | - (specific OD450 or cpm of sera sample binding to peptide divided by the specific OD450 or cpm of NHS sample binding to peptide, which value is less than 2) | - (specific OD450 or cpm of sera sample binding to peptide divided by the specific OD450 or cpm of NHS sample binding to peptide, which value is less than 2) | - (specific OD450 or cpm of sera sample binding to peptide divided by the specific OD450 or cpm of NHS sample binding to peptide, which value is less than 2) | + (which value is between 2 to 3) | + (which value is between 2 to 3) | + (which value is between 2 to 3) | - (specific OD450 or cpm of sera sample binding to peptide divided by the specific OD450 or cpm of NHS sample binding to peptide, which value is less than 2) | + (which value is between 2 to 3) | - (specific OD450 or cpm of sera sample binding to peptide divided by the specific OD450 or cpm of NHS sample binding to peptide, which value is less than 2) | Percentage of sera samples demonstrating binding to peptide, non-transmitter ([2]; Non-transmitter group, n = 13): 53.8%; Binding of maternal HIV+ serum to peptide (sera/NHS ratio) [2, 19]: + (which value is between 2 to 3); Binding of maternal HIV+ serum to peptide (sera/NHS ratio) [2, 20]: - (specific OD450 or cpm of sera sample binding to peptide divided by the specific OD450 or cpm of NHS sample binding to peptide, which value is less than 2); Binding of maternal HIV+ serum to peptide (sera/NHS ratio) [2, 21]: - (specific OD450 or cpm of sera sample binding to peptide divided by the specific OD450 or cpm of NHS sample binding to peptide, which value is less than 2); Binding of maternal HIV+ serum to peptide (sera/NHS ratio) [2, 22]: ++ (which value is greater than 3); Percentage of sera samples demonstrating binding to peptide, transmitter ([2]; Transmitter / transmission group, n = 7): 42.9%; Percent of the maternal serum samples that bound to the peptide ([2]; all 20 samples): 50%
SSGRMIMEKGEIKNCSFNIST [Peptide 59] | 0 | 0% | 0 | 0% | - (specific OD450 or cpm of sera sample binding to peptide divided by the specific OD450 or cpm of NHS sample binding to peptide, which value is less than 2) | - (specific OD450 or cpm of sera sample binding to peptide divided by the specific OD450 or cpm of NHS sample binding to peptide, which value is less than 2) | - (specific OD450 or cpm of sera sample binding to peptide divided by the specific OD450 or cpm of NHS sample binding to peptide, which value is less than 2) | - (specific OD450 or cpm of sera sample binding to peptide divided by the specific OD450 or cpm of NHS sample binding to peptide, which value is less than 2) | - (specific OD450 or cpm of sera sample binding to peptide divided by the specific OD450 or cpm of NHS sample binding to peptide, which value is less than 2) | - (specific OD450 or cpm of sera sample binding to peptide divided by the specific OD450 or cpm of NHS sample binding to peptide, which value is less than 2) | - (specific OD450 or cpm of sera sample binding to peptide divided by the specific OD450 or cpm of NHS sample binding to peptide, which value is less than 2) | - (specific OD450 or cpm of sera sample binding to peptide divided by the specific OD450 or cpm of NHS sample binding to peptide, which value is less than 2) | - (specific OD450 or cpm of sera sample binding to peptide divided by the specific OD450 or cpm of NHS sample binding to peptide, which value is less than 2) | - (specific OD450 or cpm of sera sample binding to peptide divided by the specific OD450 or cpm of NHS sample binding to peptide, which value is less than 2) | - (specific OD450 or cpm of sera sample binding to peptide divided by the specific OD450 or cpm of NHS sample binding to peptide, which value is less than 2) | - (specific OD450 or cpm of sera sample binding to peptide divided by the specific OD450 or cpm of NHS sample binding to peptide, which value is less than 2) | - (specific OD450 or cpm of sera sample binding to peptide divided by the specific OD450 or cpm of NHS sample binding to peptide, which value is less than 2) | - (specific OD450 or cpm of sera sample binding to peptide divided by the specific OD450 or cpm of NHS sample binding to peptide, which value is less than 2) | - (specific OD450 or cpm of sera sample binding to peptide divided by the specific OD450 or cpm of NHS sample binding to peptide, which value is less than 2) | - (specific OD450 or cpm of sera sample binding to peptide divided by the specific OD450 or cpm of NHS sample binding to peptide, which value is less than 2) | Binding of maternal sera to peptide (in words) ([2]; Example 3): No binding; Binding of maternal HIV+ serum to peptide (sera/NHS ratio) [2, 19]: - (specific OD450 or cpm of sera sample binding to peptide divided by the specific OD450 or cpm of NHS sample binding to peptide, which value is less than 2); Binding of maternal HIV+ serum to peptide (sera/NHS ratio) [2, 20]: - (specific OD450 or cpm of sera sample binding to peptide divided by the specific OD450 or cpm of NHS sample binding to peptide, which value is less than 2); Binding of maternal HIV+ serum to peptide (sera/NHS ratio) [2, 21]: - (specific OD450 or cpm of sera sample binding to peptide divided by the specific OD450 or cpm of NHS sample binding to peptide, which value is less than 2); Binding of maternal HIV+ serum to peptide (sera/NHS ratio) [2, 22]: - (specific OD450 or cpm of sera sample binding to peptide divided by the specific OD450 or cpm of NHS sample binding to peptide, which value is less than 2)
